# Test results taken from US4046765A, “Dihydroquinoline derivatives of antioxidant activity and a process for the preparation thereof” (priority 1971, dated 1977).
# Structures can show the parent of a compound that is named as a salt.
# How the values were obtained:
# [1] = in vivo; cited from earlier work
# [2] = tested on: encephalomalacia of poultries; conditions: compared with EMQ; cited from earlier work
# [3] = antioxidant effect on fish-meal samples, oxygen uptake in Warburg apparatus and peroxide number; conditions: 40 g. fish meal + 0.04 g. antioxidant; for oxygen uptake (decrease of O2 pressure): 29° C., Warburg apparatus, control 19.5; for Peroxide Number: calculated for 1 g. of fish meal, after treatment with oxygen, control 7.83
# Experimental: The antioxidant effect of the new substances shown in foodstuffs and nutriments was investigated on fish-meal samples. […] In these experiments the oxygen uptake of fish-meal samples containing the various antioxidants was determined in a Warburg apparatus at 29° C., and the results were compared with those measured on samples containing no antioxidant. The peroxide number of samples treated with oxygen was also determined.
# [4] = known antioxidant; cited from earlier work
# [5] = biological systems, foodstuff mixtures; cited from earlier work
# [6] = 0.56 g./kg., longer period, animals; cited from earlier work
# rats [7] = conditions: 0.50 g./kg., 14 days; cited from earlier work
# solubility = assay type: physicochemical
# rats [8] = assay: chronic toxicity of XAX, continuous administration to rats; assay type: in vivo, rat
# Excerpt: (§1) Since the novel compounds are completely nontoxic, they can be used with great advantage in animal husbandry and in the food industry, as well as in therapy. On the basis of the investigations carried out on the acute and chronic toxicity of these new active agents, it can be stated that they are completely free of the disadvantages of the hitherto-known antioxidants mentioned above, first of all as regards their use in therapy.
# [9] = tested on: liver cirrhosis caused by carbon tetrachloride; assay: prophylactic activity against liver cirrhosis caused by carbon tetrachloride; assay type: in vivo
# malignant tumors = assay: appearance of malignant tumors in animals treated with minimum irradiation doses for a long period; assay type: in vivo; conditions: versus irradiated untreated animals
# Excerpt: Another important and unexpected property of the new substances is that they exert radiosensibilizing effect. […] On the basis of this property, the new compounds can also be used for the potentiating of the effect of irradiation therapy.
# rats [10] = conditions: rat, in vivo
# Excerpt: as §1
# serum cholesterol = serum cholesterol lowering in rabbits treated with cholesterol; assay type: in vivo, rabbit; conditions: 1 g. cholesterol per day, XAX 0.06 g./kg. daily, 70 or 105 days
# Experimental: Due to this fact they can also be used for the prophylaxis and treatment of arteriosclerosis. This effect of the new substances was investigated on rabbits treated with 1 g. of cholesterol per day. The animals were treated for 70 or 105 days with daily doses of 0.06 g./kg. of XAX. […] Using the hitherto-known antioxidants, this very favorable and important effect could not be reached at all.
# [11] = 90 days, versus untreated animals
structure (smiles),measurement,setting,value
Cc1cc(C(C)(C)C)c(O)c(C(C)(C)C)c1 [BHT],teratogeneous effect (anophthalmia),[1],"the appearance of anophthalmia was observed, indicating that the compound exerts a teratogeneous effect"
same,activity in encephalomalacia of poultries versus EMQ,[2],far lower activity than EMQ
same,oxygen uptake (decrease of O2 pressure),[3],16.5 mmHg
same,Peroxide Number,[3],3.42
"c1ccc(Nc2ccc(Nc3ccccc3)cc2)cc1 [DPPD, N,N'-diphenyl-p-phenylenediamine]",cancer-inducing effect,[4],cancer-inducing effect
same,activity as antioxidant,[5],relatively low activity
"CCOc1ccc2c(c1)C(C)=CC(C)(C)N2 [EMQ, 6-ethoxy-2,2,4-trimethyl-1,2-dihydroquinoline]",oxygen uptake (decrease of O2 pressure),[3],23.5 mmHg
same,Peroxide Number,[3],2.87
same,appetite,[6],may cause appetite lowering
same,gain in weight,[6],lowers the gain in weight
same,appetite,rats [7],the appetite of the animals was lowered
same,size of the liver,rats [7],an increase in size of the liver was observed
"CC1=CC(C)(C)Nc2ccc(Cc3ccc4c(c3)C(C)=CC(C)(C)N4)cc21 [Example 8, bis-(2,2,4-trimethyl-1,2-dihydroquinolyl-6)-methane]",solubility in water and alcohol,solubility,well soluble in water and alcohol
"CC1=CC(C)(C)Nc2ccc(Cc3ccc4c(c3)C(C)=CC(C)(C)N4)cc21 [Example 9, bis-(2,2,4-trimethyl-1,2-dihydroquinolyl-6)-methane-dihydrochloride]",solubility in water and alcohol,solubility,soluble in water and alcohol
"CC1=CC(C)(C)Nc2ccc(Cc3ccc4c(c3)C(C)=CC(C)(C)N4)cc21 [XAX, bis-(2,2,4-trimethyl-1,2-dihydroquinolyl-6)-methane]",weight gain and blood picture,rats [8]; [11],Neither the weight gain nor the blood picture of the animals was harmfully affected
same,weight gain of some organs,rats [8]; [11],no excessive weight gain of some organs of the animals could be observed
same,damaging of tissues or cells,"rats [8]; daily 0.25 mg./kg., 3 weeks",no damaging of tissues or cells could be observed
same,oxygen uptake (decrease of O2 pressure),[3],11.5 mmHg
same,Peroxide Number,[3],1.54
same,prophylactic activity against liver cirrhosis,[9],great prophylactic activity
same,appearance of malignant tumors,malignant tumors,could be suppressed
same,toxic symptoms,rats [10],no toxic symptoms
same,cholesterol level of the blood,serum cholesterol,the cholesterol level of the blood decreased to a great extent
CC1=CC(C)(C)Nc2ccc(Cc3ccc4c(c3)C(C)=CC(C)(C)N4)cc21 [sulfuric acid salt of XAX],solubility in water and alcohol,solubility,soluble in water and alcohol
